Measurements from patent US7511063B2, “High affinity quinoline-based kinase ligands” (Schering Corporation, priority 2006, dated 2009).

molecular target: CDK-2 (Homo sapiens, UniProt P24941); assay: Fluorescence polarization displacement assay (inhibitory effectiveness toward CDK-2); format: binding; settings: IC50
Protocol: Fluorescence Polarization Assay
Binding assays were performed in a 384 well Costar NBS coated plate. […] The concentration of BMS-Alexa Fluor647 was 50 nM. Serial dilutions of compounds were added to 12 wells. The final buffer concentration was 10 mM Hepes, pH 7.5, 150 mM NaCl, and 1 mM DTT. Samples were incubated at room temperature for 15 minutes and then read in an Analyst HT instrument using an excitation and emission wavelength of 580 and 680 nm, respectively.

SMILES | IC50 [µM]
CCCCCCc1ccc2nc(C(=O)N[C@@H](Cc3ccc(O)cc3)C(=O)OC)cc(C(=O)O)c2c1 [Compound 4] | < 1
COC(=O)[C@H](Cc1ccc(O)cc1)NC(=O)c1cc(C(=O)O)c2cc(CCc3ccc(Cl)cc3)ccc2n1 [Compound 9] | < 1
COC[C@H](Cc1ccc(O)cc1)NC(=O)c1cc(C(=O)O)c2cc(/C=C/c3ccc(Cl)cc3)ccc2n1 [Compound 16] | < 1
COC(=O)[C@H](Cc1ccc(O)cc1)NC(=O)c1cc(C(=O)O)c2cc(-c3ccccc3)ccc2n1 [Compound 73] | < 1
COC(=O)[C@H](Cc1ccc(F)cc1)NC(=O)c1cc(C(=O)O)c2cc(-c3cccc(C(F)(F)F)c3)ccc2n1 [Compound 109] | 1 to 40
COC(=O)[C@H](Cc1ccc(OC)cc1)NC(=O)c1cc(C(=O)O)c2cc(-c3cccc(C(F)(F)F)c3)ccc2n1 [Compound 162] | > 40
COC(=O)[C@H](Cc1cccc(O)c1)NC(=O)c1cc(C(=O)O)c2cc(-c3cccc(C(F)(F)F)c3)ccc2n1 [Compound 163] | > 40
COC(=O)[C@@H](Cc1ccc(O)cc1)NC(=O)c1cc(C(=O)O)c2cc(-c3cccc(C(F)(F)F)c3)ccc2n1 [Compound 169] | > 40

same assay, conditions: inhibitory effectiveness toward CDK-2; read-out: IC50

IC50 [µM] | SMILES
< 1 | COC(=O)[C@H](Cc1ccc(O)cc1)NC(=O)c1cc(C(=O)O)c2cc(-c3ccc(OC(F)(F)F)cc3)ccc2n1 [Compound 3]
< 1 | CCCCCC#Cc1ccc2nc(C(=O)N[C@H](COC)Cc3ccc(O)cc3)cc(C(=O)O)c2c1 [Compound 19]
< 1 | CCCCCCCc1ccc2nc(C(=O)N[C@H](COC)Cc3ccc(O)cc3)cc(C(=O)O)c2c1 [Compound 20]
< 1 | CCCCC/C=C/c1ccc2nc(C(=O)N[C@H](COC)Cc3ccc(O)cc3)cc(C(=O)O)c2c1 [Compound 21]
< 1 | Cc1cnc([C@H](Cc2ccc(O)cc2)NCc2cc(C(=O)O)c3cc(-c4cccc(C(F)(F)F)c4)ccc3n2)o1 [Compound 45]
< 1 | COC[C@H](Cc1ccc(O)cc1)NC(=O)c1cc(C(=O)O)c2cc(OCc3ccc(C(F)(F)F)cc3)ccc2n1 [Compound 55]
< 1 | CO/N=C\[C@H](Cc1ccc(O)cc1)NC(=O)c1cc(C(=O)O)c2cc(-c3cccc(C(F)(F)F)c3)ccc2n1 [Compound 59]
1 to 40 | COC(=O)[C@H](Cc1ccc(O)cc1)NC(=O)c1cc(C(=O)O)c2cc(-c3ccsc3)ccc2n1 [Compound 90]
1 to 40 | COC(=O)[C@H](Cc1ccc(O)cc1)NC(=O)c1cc(C(=O)O)c2cc(-c3cccc(O)c3)ccc2n1 [Compound 120]
1 to 40 | COC(=O)[C@@H](NC(=O)c1cc(C(=O)O)c2cc(-c3cccc(C(F)(F)F)c3)ccc2n1)c1ccc(O)cc1 [Compound 122]
> 40 | COC(=O)[C@H](Cc1ccccc1)NC(=O)c1cc(C(=O)O)c2cc(-c3cccs3)ccc2n1 [Compound 155]
> 40 | O=C(N[C@@H](Cc1ccc(O)cc1)c1nnn[nH]1)c1cc(C(=O)O)c2cc(-c3cccc(C(F)(F)F)c3)ccc2n1 [Compound 170]
> 40 | COC[C@H](Cc1ccc(O)cc1)NCc1cc(C(=O)OCCO)c2cc(-c3cccc(C(F)(F)F)c3)ccc2n1 [Compound 173]
> 40 | COC[C@H](Cc1ccc(O)cc1)NCc1cc(C(=O)OCC(O)CO)c2cc(-c3cccc(C(F)(F)F)c3)ccc2n1 (stereo partly drawn) [Compound 174]
> 40 | COC[C@H](Cc1ccc(O)cc1)NCc1cc(C(=O)OCCN(C)C)c2cc(-c3cccc(C(F)(F)F)c3)ccc2n1 [Compound 175]
> 40 | COC[C@H](Cc1ccc(O)cc1)NCc1cc(C(=O)OC[C@@H](N)C(C)C)c2cc(-c3cccc(C(F)(F)F)c3)ccc2n1 [Compound 176]
> 40 | COC[C@H](Cc1ccc(O)cc1)NC(=O)c1cc(C(=O)O)c2cc(C#CCCO)ccc2n1 [Compound 186]
> 40 | COC[C@H](Cc1ccc(O)cc1)NC(=O)c1cc(C(=O)O)c2cc(CCCCO)ccc2n1 [Compound 189]
> 40 | COC[C@H](Cc1ccc(O)cc1)NC(=O)c1cc(C(=O)O)c2cc(-c3cccc(CN4CC[C@@H](O)C4)c3)ccc2n1 [Compound 192]
> 40 | COC[C@H](Cc1ccc(O)cc1)NC(=O)c1cc(C(=O)O)c2cc(COc3ccc(Cl)cc3)ccc2n1 [Compound 199]
> 40 | COC[C@H](Cc1ccc(O)cc1)NC(=O)c1cc(C(=O)O)c2cc(C#CCCn3cccn3)ccc2n1 [Compound 224]
> 40 | CC(C)(C)S(=O)(=O)NCc1cc(C(=O)N[C@H](CN)Cc2ccc(O)cc2)nc2ccc(C#Cc3ccccn3)cc12 [Compound 225]

SMILES | IC50 [µM]
COC(=O)[C@H](Cc1ccc(O)cc1)NC(=O)c1cc(C(=O)O)c2cc(/C=C/c3ccc(Cl)cc3)ccc2n1 [Compound 7] | < 1
COC[C@H](Cc1ccc(O)cc1)NC(=O)c1cc(C(=O)O)c2cc(-c3cccc(C(F)(F)F)c3)ccc2n1 [Compound 13] | < 1
COC(=O)[C@H](Cc1ccc(O)cc1)NC(=O)c1cc(C(=O)O)c2cc(-c3cc(Cl)cc(Cl)c3)ccc2n1 [Compound 39] | < 1
